Key:
Type in all cases: in vivo
[1] = test system: Green Peach Aphid (Myzus persicae); test: B.3 Green peach aphid, systemic, artificial diet in 96-well plates; settings: 72 h, adult aphids, 3 days, read-out: mortality in comparison with untreated controls
Source text: For evaluating control of green peach aphid (Myzus persicae) through systemic means the test unit consisted of 96-well-microtiter plates containing liquid artificial diet under an artificial membrane.
The compounds were formulated using a solution containing 75% v/v water and 25% v/v DMSO. Different concentrations of formulated compounds were pipetted into the aphid diet, using a custom built pipetter, at two replications.
After application, 5 to 8 adult aphids were placed on the artificial membrane inside the microtiter plate wells. The aphids were then allowed to suck on the treated aphid diet and incubated at about 23+1° C. and about 50+5% relative humidity for 3 days. Aphid mortality and fecundity was then visually assessed.

[2] = test system: Vetch Aphid (Megoura Viciae); test: B.7 Vetch aphid, broad bean leaf disks in 24-well plates; settings: foliar, 120 h, sprayed leaf disks, adult aphids, 5 days, read-out: mortality in comparison with untreated controls
Experimental: For evaluating control of vetch aphid (Megoura viciae) through contact or systemic means the test unit consisted of 24-well-microtiter plates containing broad bean leaf disks.
The compounds were formulated using a solution containing 75% v/v water and 25% v/v DMSO. Different concentrations of formulated compounds were sprayed onto the leaf disks at 2.5 μl, using a custom built micro atomizer, at two replications.
After application, the leaf disks were air-dried and 5 to 8 adult aphids placed on the leaf disks inside the microtiter plate wells. The aphids were then allowed to suck on the treated leaf disks and incubated at about 23+1° C. and about 50+5% relative humidity for 5 days. Aphid mortality and fecundity was then visually assessed.

[3] = test system: Orchid Thrips (Dichromothrips Corbetti); test: B.5 Orchid thrips, floral-immersion technique; settings: dipped orchid flowers, adult thrips, 72 hours after treatment, read-out: mortality in comparison with untreated controls
Experimental: Dichromothrips corbetti adults used for bioassay were obtained from a colony maintained continuously under laboratory conditions. For testing purposes, the test compound is diluted in a 1:1 mixture of acetone:water (vol:vol), plus 0.01% vol/vol Alkamuls® EL 620 surfactant.
Thrips potency of each compound was evaluated by using a floral-immersion technique. Plastic petri dishes were used as test arenas. All petals of individual, intact orchid flowers were dipped into treatment solution and allowed to dry. Treated flowers were placed into individual petri dishes along with about 20 adult thrips. The petri dishes were then covered with lids. All test arenas were held under continuous light and a temperature of about 28° C. for duration of the assay. After 3 days, the numbers of live thrips were counted on each flower, and along inner walls of each petri dish. The percentmortality was recorded 72 hours after treatment.

[4] = test system: Tobacco Budworm (Heliothis virescens); test: B.8 Tobacco budworm I, insect diet with eggs in 96-well plates; settings: 120 h, egg and larval mortality, 5 days, read-out: mortality in comparison with untreated controls
Experimental: For evaluating control of tobacco budworm (Heliothis virescens) the test unit consisted of 96-well-microtiter plates containing an insect diet and 15-25 H. virescens eggs.
The compounds were formulated using a solution containing 75% v/v water and 25% v/v DMSO. Different concentrations of formulated compounds were sprayed onto the insect diet at 10 μl, using a custom built micro atomizer, at two replications.
(§1) After application, microtiter plates were incubated at about 28+1° C. and about 80+5% relative humidity for 5 days. Egg and larval mortality was then visually assessed.

[5] = test system: Western Corn Rootworm (Diabrotica virgifera virgifera); test: CE.2 Western corn rootworm assay, treated soil; settings: second-instar larvae, 3 days after infestation
Experimental: (§2) The activity summarized in the tables hereinbelow are given as percentage of mortality in comparison with untreated control
The active compound was applied in acetone at rates of 5 and 50 ppm a.i./soil (w/w). Treatments were applied in solution to sifted, North Carolina loamy sand (Sandhill soil) in a plastic bag. Treatments were thoroughly incorporated by sealing and shaking each bag by hand and allowing the solution to soak through the soil mass for at least 10 minutes before unsealing. The bags were then kept open in a fume hood overnight to evaporate the solvent from the soil.
One day after treatment (DAT) distilled water for moisture and water-soaked millet seed (Panicum miliaceum ‘white millet’) as a food source were added to each bag and mixed in thoroughly. 11 cm^3 of millet and soil mixture were dispensed into a 1 oz. plastic cup. Each cup was infested with 10 western corn rootworm second-instar larvae. Each cup or group of four cells was a replicate, and replication was 3×. The test was maintained in incubators at 26° C. in the dark. Mortality was evaluated 3 days after infestation (DAI) and mean percent mortality was calculated.

[6] = test system: Diamond Back Moth (Plutella xylostella); test: B.2 Diamond back moth, cabbage leaf dip; settings: foliar, dipped cabbage leaves, 3rd instar larvae, 72 hours after treatment, read-out: mortality in comparison with untreated controls
Experimental: The active compound is dissolved at the desired concentration in a mixture of 1:1 (vol:vol) distilled water:aceteone. Surfactant (Alkamuls® EL 620) is added at a rate of 0.1% (vol/vol).The test solution is prepared at the day of use.
Leaves of cabbage were dipped in test solution and air-dried. Treated leaves were placed in petri dish eslined with moist filter paper and inoculated with ten 3rd instar larvae. Mortality was recorded 72 hours after treatment. Feeding damages were also recorded using a scale of 0-100%.

[7] = test system: Boll Weevil (Anthonomus grandis); test: B.9 Boll weevil, insect diet with eggs in 96-well plates; settings: 120 h, egg and larval mortality, 5 days, read-out: mortality in comparison with untreated controls
Experimental: For evaluating control of boll weevil (Anthonomus grandis) the test unit consisted of 96-well-microtiter plates containing an insect diet and 5-10 A. grandis eggs.
(§3) The compounds were formulated using a solution containing 75% v/v water and 25% v/v DMSO. Different concentrations of formulated compounds were sprayed onto the insect diet at 5 μl, using a custom built micro atomizer, at two replications.
After application, microtiter plates were incubated at about 25+1° C. and about 75+5% relative humidity for 5 days. Egg and larval mortality was then visually assessed.

[8] = test system: Cowpea Aphid (Aphis craccivora); test: B.1 Cowpea aphid, sprayed potted cowpea plants; settings: assessed after 72 hours, read-out: mortality in comparison with untreated controls
Experimental: The active compound is dissolved at the desired concentration in a mixture of 1:1 (vol:vol) distilled water:acetone. Surfactant (Alkamuls® EL 620) is added at a rate of 0.1% (vol/vol). The test solution is prepared at the day of use.
(§4) Potted cowpea plants were colonized with approximately 50 to 100 aphids of various stages by manually transferring a leaf tissue cut from infested plant 24 hours before application. Plants were sprayed after the pest population has been recorded. Treated plants are maintained on light carts at about 28° C. Percent mortality was assessed after 72 hours.

[9] = test system: Mediterranean Fruitfly (Ceratitis capitata); test: CE.3 Mediterranean fruitfly, comparison with prior art compounds; settings: 5 days; for Mediterranean fruitfly egg and larval mortality vs. untreated control (%): sprayed onto insect diet with eggs
Experimental: as §2
(§5) For evaluating control of Mediterranean fruitfly (Ceratitis capitata) the test unit consisted of microtiter plates containing an insect diet and 50-80 C. capitata eggs.
as §3
After application, microtiter plates were incubated at about 28±1° C. and about 80±5% relative humidity for 5 days. Egg and larval mortality was then visually assessed.

[10] = test system: Cowpea Aphid (Aphis craccivora); test: CE.1 Cowpea aphid, comparison with prior art compounds; settings: for % activity (mortality of Cowpea aphid in %, vs. untreated control): sprayed cowpea plants, assessed after 72 hours
Experimental: as §2
The active compound was dissolved at the desired concentration in a mixture of 1:1 (vol:vol) distilled water:acetone. Surfactant (Alkamuls® EL 620) is added at a rate of 0.1% (vol/vol). The test solution was prepared at the day of use.
as §4

[11] = test system: Mediterranean Fruitfly (Ceratitis capitata); test: B.4 Mediterranean fruitfly, insect diet with eggs in microtiter plates; settings: 120 h, egg and larval mortality, 5 days, read-out: mortality in comparison with untreated controls
Experimental: as §5, §3, §1

Row | Compound | mortality at 2500 ppm [1] [%] | mortality at 2500 ppm [2] [%] | mortality at 300 ppm [3] [%] | mortality at 2500 ppm [4] [%] | % activity (mortality of Western corn rootworm in %, vs. untreated control) ([5]; 5 ppm a.i./soil (w/w)) [%] | % activity (mortality of Western corn rootworm in %, vs. untreated control) ([5]; 50 ppm a.i./soil (w/w)) [%] | mortality at 300 ppm [6] [%] | mortality at 2500 ppm [7] [%] | mortality at 300 ppm [8] [%] | activity against Mediterranean fruitfly in comparison with comparative compound CC-1 ([9]; egg and larval mortality) | % activity (mortality of Cowpea aphid in %, vs. untreated control) ([10]; 100 ppm active ingredient) [%] | % activity (mortality of Cowpea aphid in %, vs. untreated control) ([10]; 300 ppm active ingredient) [%] | % activity (mortality of Cowpea aphid in %, vs. untreated control) ([10]; 500 ppm active ingredient) [%] | activity against Cowpea aphid in comparison with comparative compound CC-3 ([10]; percent mortality after 72 hours) | Mediterranean fruitfly egg and larval mortality vs. untreated control (%) ([9]; 1415 ppm active ingredient) | Mediterranean fruitfly egg and larval mortality vs. untreated control (%) ([9]; 2500 ppm active ingredient) | mortality at 2500 ppm [11] [%]
1 | CCS(CC)=NC(=O)c1cc(Cl)cc(Cl)c1NC(=O)c1cc(C(F)(F)F)nn1-c1ncccc1Cl [S.6, N-[4,6-dichloro-2-[(diethyl-λ^4-sulfanylidene)carbamoyl]-phenyl]-2-(3-chloro-2-pyridyl)-5-(trifluoromethyl)pyrazole-3-carboxamide] | > 75 | > 75 | > 75 | > 75 | 100 | 100 | > 75 | > 95 | > 75 |  |  |  |  |  |  |  | 
2 | O=C(N=S1CCCC1)c1cc(Cl)cc(Cl)c1NC(=O)c1cc(C(F)(F)F)nn1-c1ncccc1Cl [S.3, 2-(3-chloro-2-pyridyl)-N-[2,4-dichloro-6-[(tetrahydro-λ^4-thiophenidene)carbamoyl]phenyl]-5-(trifluoromethyl)pyrazole-3-carboxamide] |  |  |  |  |  |  |  |  |  | superior activity |  |  |  |  |  |  | 
3 | CC(C)S(=NC(=O)c1cc(Cl)cc(Cl)c1NC(=O)c1cc(C(F)(F)F)nn1-c1ncccc1Cl)C(C)C [S.1, 2-(3-chloro-2-pyridyl)-N-[2,4-dichloro-6-[(bis-2-propyl-λ^4-sulfanylidene)carbamoyl]phenyl]-5-(trifluoromethyl)pyrazole-3-carboxamide] | > 75 | > 75 | > 75 | > 75 | 100 | 100 | > 75 | > 95 | > 75 |  | 100 | 100 | 100 | superior activity | 100 | 100 | > 75
4 | CCS(CC)=NC(=O)c1cc(Cl)cc(C)c1NC(=O)c1cc(C(F)(F)F)nn1-c1ncccc1Cl [CC-2, reference compound] |  |  |  |  | 21 | 93 |  |  |  |  |  |  |  |  |  |  | 

Reference: US9044016B2, “N-thio-anthranilamide compounds and their use as pesticides” (BASF SE, priority 2011, dated 2015)
